Experimental data reported in PubChem BioAssay (NCI).
Values joined by “and” are separate entries in the source; they are usually repeats but may differ in a detail not shown here. Identical values can stand only once.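 Dose response: 5 concentrations. Exposure: 48 h. Format: 96-well plates. Endpoint: linear interpolation; highest concentration if not reached. GI50 marks 50% less growth. The concentration for full growth arrest is given as TGI.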 Where a SMILES comes first, the peptide text is derived from it. [ ]: non-standard residue; d: D form. The star is where a group is joined. Bn2Val = CC(C)[C@@H](C(=O)*)N(Cc1ccccc1)Cc1ccccc1; NH(3,4-diMeO-benzyl) = COc1ccc(CN*)cc1OC; NMeV = CN[C@H](C(=O)O)C(C)C; dNMeA = CN[C@H](C)C(=O)O

How the values were obtained:
Assay in all cases: NCI tumour cell line growth inhibition, 48 h
786-0 renal = system: 786-0 renal
CCRF-CEM leukemia = system: CCRF-CEM leukemia
COLO 205 colon = system: COLO 205 colon
HCC-2998 colon = system: HCC-2998 colon
HL-60(TB) leukemia = system: HL-60(TB) leukemia
HOP-92 NSCLC = system: HOP-92 NSCLC
LOX IMVI melanoma = system: LOX IMVI melanoma
NCI-H460 lung = system: NCI-H460 lung
OVCAR-4 ovarian = system: OVCAR-4 ovarian
RXF 393 renal = system: RXF 393 renal

Compound | GI50 (786-0 renal) [µM] | TGI (786-0 renal) | GI50 (CCRF-CEM leukemia) [µM] | TGI (CCRF-CEM leukemia) | GI50 (COLO 205 colon) [µM] | TGI (COLO 205 colon) | GI50 (HCC-2998 colon) [µM] | TGI (HCC-2998 colon) [µM] | GI50 (HL-60(TB) leukemia) [µM] | TGI (HL-60(TB) leukemia) | GI50 (HOP-92 NSCLC) [µM] | TGI (HOP-92 NSCLC) | GI50 (LOX IMVI melanoma) [µM] | TGI (LOX IMVI melanoma) | GI50 (NCI-H460 lung) [µM] | TGI (NCI-H460 lung) | GI50 (OVCAR-4 ovarian) [µM] | TGI (OVCAR-4 ovarian) | GI50 (RXF 393 renal) [µM] | TGI (RXF 393 renal)
NNC(=O)c1cnn(-c2ccnc3c(C(F)(F)F)cccc23)c1N | > 100 | > 100 µM | > 100 | > 100 µM | > 100 | > 100 µM | > 100 | > 100 | > 100 | > 100 µM | 82.1 | > 100 µM | > 100 | > 100 µM | > 100 | > 100 µM | > 100 | > 100 µM | > 100 | > 100 µM
CC(=O)/C=C/c1cccc(N=S)c1 | – | 13.1 µM | – | > 49.1 µM | – | > 48 µM | – | 34.6 | – | 34.2 µM | – | > 100 µM | – | 5.92 µM | – | > 53.8 µM | – | > 100 µM | – | 53.8 µM
O=C(O)Cc1c[nH]c2ccc(F)cc12 | – | > 100 µM | – | > 100 µM | – | > 100 µM | – | > 100 | – | > 100 µM | – | > 100 µM | – | > 100 µM | – | > 100 µM | – | > 100 µM | – | > 100 µM
COc1cc2c(NCCCCCCO[N+](=O)[O-])ncnc2c(OC)c1OC | – | 69.2 µM | – | 67.8 µM | – | 51.6 µM | – | 17.2 | – | 54.8 µM | – | 47.1 µM | – | 49.3 µM | – | 69.8 µM | – | > 100 µM | – | 75.2 µM
O=[n+]1c(CBr)c(CBr)n([O-])c2ccccc21 | 11.9 | 25.7 µM | 2.79 | 14.2 µM | 2.04 | 3.99 µM | 16.9 | 31 | 2.26 | 5.8 µM | 4.61 | 17.8 µM | 1.8 | 3.48 µM | 16.9 | 34.6 µM | 6.81 | 20.4 µM | 4.66 | 16.9 µM
O=C(O/N=C1/CCC/C1=C\c1ccccc1)c1ccc([N+](=O)[O-])cc1 | – | > 100 µM | – | > 100 µM | – | > 100 µM | – | 25.7 | – | > 100 µM | – | > 100 µM | – | > 100 µM | – | > 100 µM | – | > 100 µM | – | > 100 µM
CCOc1ccc2nc(NC(=O)/C(CC(=O)CC(C3=C(O)c4ccccc4CC3=O)c3ccccc3)=N\O)sc2c1 (configuration not stated) | – | > 100 µM | – | > 100 µM | – | > 100 µM | – | > 100 | – | > 100 µM | – | > 100 µM | – | > 100 µM | – | > 100 µM | – | > 100 µM | – | > 100 µM
COc1cc2c(c(O)c1C)C(=O)C(Cl)=CC2=O | – | 28.2 µM | – | 16 µM | – | 4.96 µM | – | 44.8 | – | 5.57 µM | – | 11.5 µM | – | 23.8 µM | – | 63.3 µM | – | 33.7 µM | – | 13.1 µM
COc1ccc(CN2CCCC(C(=O)c3ccc(C(F)(F)F)cc3)C2)c(O)c1 (configuration not stated) | 17.3 | 40.4 µM | 35.2 | > 100 µM | 19.3 | 36.7 µM | 24 | 56.3 | 24.9 | 62 µM | 11.1 | 58 µM | 18.4 | 35.3 µM | 26.7 | > 100 µM | 29.2 | > 100 µM | 16.9 | 71.9 µM
C/C(=N\NC(N)=S)c1ccc(C)cc1C | – | > 100 µM | – | > 100 µM | – | > 100 µM | – | > 100 | – | > 100 µM | – | > 100 µM | – | > 100 µM | – | > 100 µM | – | > 100 µM | – | 75.2 µM
CNC(=O)c1cc(Oc2ccc3c(c2)sc2nc(-c4ccc(N)cc4)cn23)ccn1 | 0.433 | > 100 µM | 0.2 | > 100 µM | 0.305 | 27.2 µM | 0.537 | > 50.5 | 0.108 | – | 5.98 | > 100 µM | 0.904 | > 100 µM | 0.289 | 20.6 µM | 2.49 | > 100 µM | 0.297 | > 100 µM
O=C1/C(=C/c2ccccc2)CN(C(=O)Oc2ccc(Cl)cc2)C/C1=C\c1ccccc1 | – | 3.96 µM | – | 6.39 µM | – | 9.53 µM | – | 2.99 | – | 4.5 µM | – | 42.3 µM | – | 2.51 µM | – | 9.84 µM | – | 3.52 µM | – | 4.14 µM
CC[n+]1ccc2c(c1)C(=O)c1nccc3c1c-2nc1ccccc13 | 0.768 | 2.97 µM | 1.39 | 14.4 µM | 1.13 | 5.22 µM | 1.05 | 4.97 | 5.79 | 16.9 µM | 1.45 | 7.02 µM | 2.19 | 7.93 µM | 0.12 | 2.65 µM | 0.941 | 4.1 µM | 0.93 | 3.68 µM
CCOC(=O)c1c(N)n(-c2ccccc2)c(=S)n(-c2ccccc2)c1=O | – | > 100 µM | – | > 100 µM | – | > 100 µM | – | > 100 | – | > 100 µM | – | > 100 µM | – | > 100 µM | – | > 100 µM | – | > 100 µM | – | > 100 µM
O=C1c2ccccc2C(=O)c2c1ccc1[nH]c(CCl)nc21 | 2.91 | 9.38 µM | 2.19 | 6.42 µM | 2.54 | 8.62 µM | 3.41 | 12.7 | 2.64 | 7 µM | 1.58 | 6.26 µM | 2.2 | 5.22 µM | 3.97 | 15.1 µM | 3.05 | 11.2 µM | 1.86 | 6.17 µM
CC1(C)N=C(N)N=C(N)N1c1ccc(CCCCc2ccc(S(=O)(=O)F)cc2Cl)c(Cl)c1 | – | 76.9 µM | – | 8.28 µM | – | 78 µM | – | 67.1 | – | 11.6 µM | – | 48.6 µM | – | 43.9 µM | – | 80.8 µM | – | > 468 µM | – | 187 µM
COc1ccc(CNC(=O)[C@@H](C)N(C)C(=O)[C@@H]2CCCN2C(=O)[C@H](C(C)C)N(C)C(=O)[C@@H](NC(=O)[C@H](C(C)C)N(Cc2ccccc2)Cc2ccccc2)C(C)C)cc1OC (Bn2Val-V[NMeV]P[dNMeA]-{NH(3,4-diMeO-benzyl)}) | 11.4 | 21.3 µM and 28.3 µM | 0.756 | 16.9 µM and 44.2 µM | 5.86 | 19.8 µM and 35.9 µM | – | 21.2 | – | 11 µM and 9.45 µM | 10.2 | 16.9 µM and 23.4 µM | 6.35 | 15.4 µM and 26.2 µM | 8.21 | 50 µM and 37.9 µM | 7.54 | 50 µM and 42.2 µM | 3.61 | 12.8 µM and 15 µM
